Source: US20200239398A1, “METHYLENE-CYCLOALKYLACETATE DERIVATIVES AND THEIR USE IN TREATMENT OF NEUROTROPIC CONDITIONS” (Yissum Research Development Company of The Hebrew …, priority 2018, published 2020)
Read-outs that look alike come from different tables or passages of the source.

Assays:
[1] = system: dorsal root ganglion (DRG) sensory neurons; assay: Neurite outgrowth in dorsal root ganglion (DRG) explants; type: cell-based, mice
Protocol: To perform these experiments, about 10 dorsal root ganglia (DRGs) were excised under sterile conditions and transferred to 0.25% Type IV collagenase (Sigma-Aldrich-Merck) in Dulbecco's Modified Eagle Medium (DMEM) at 37° C. for 45 min, followed by a 20-min incubation with 0.025% trypsin in DMEM, to digest the associated connective tissue surrounding the neurons. After plating the ganglia onto collagen (50 μg/ml)/laminin mixture (5 μg/ml)-coated tissue culture wells for 24 h, DRG neurons were cultured for additional 1-7 days in fresh Neurobasal A/B27 containing either 50 ng/ml NGF (positive control), blank medium (DMSO 1%) control and HU-MCA-13. The cultures were photographed; thereafter the ganglia were immune-stained for neuronal tubulin and again photographed using a fluorescent microscope. Image analysis was performed by a researcher blinded to the experimental conditions. Neurite outgrowth distance measured in micrometers, was quantified as for PC12 cultures.

[2] = target: Arginine Vasopressin Receptor 1A (AVPR1A) (Homo sapiens, UniProt P37288); assay: SAFETYscan AVPR1A Calcium Flux; type: cell-based; conditions: 10 μM HU-MCA-13, read-out: Maximal Response
[3] = target: Muscarinic acetylcholine Receptor M1 (CHRM1) (Homo sapiens, UniProt P11229); assay: cell-based; conditions: 10 μM HU-MCA-13, read-out: Maximal Response
[4] = target: Endothelin Receptor Type A (EDNRA) (Homo sapiens, UniProt P25101); assay: SAFETYscan EDNRA Calcium Flux; type: cell-based; conditions: Agonist mode; 10 μM HU-MCA-13; read-out: Maximal Response
[5] = target: 5-Hydroxytryptamine (Serotonin) Receptor 1B (HTR1B) (Homo sapiens, UniProt P28222); assay: SAFETYscan HTR1B cAMP; type: cell-based; conditions: 10 μM HU-MCA-13, read-out: Maximal Response
[6] = target: 5-Hydroxytryptamine (Serotonin) Receptor 2B (HTR2B) (Homo sapiens, UniProt P41595); assay: SAFETYscan HTR2B Calcium Flux; type: cell-based; conditions: 10 μM HU-MCA-13, read-out: Maximal Response
[7] = target: Opioid Receptor Delta 1 (OPRD1) (Homo sapiens, UniProt P41143); assay: SAFETYscan OPRD1 cAMP; type: cell-based; conditions: 10 μM HU-MCA-13, read-out: Maximal Response
[8] = target: Opioid Receptor Kappa 1 (OPRK1) (Homo sapiens, UniProt P41145); assay: SAFETYscan OPRK1 cAMP; type: cell-based; conditions: 10 μM HU-MCA-13, read-out: Maximal Response
[9] = target: Opioid Receptor Mu 1 (OPRM1) (Homo sapiens, UniProt P35372); assay: cell-based; conditions: 10 μM HU-MCA-13, read-out: Maximal Response
[10] = target: T1, Nicotinic acetylcholine Receptor-alpha-4 beta-2 (nAChR (a4/b2)) (Homo sapiens, UniProt P17787+P43681); assay: cell-based; type: cell-based; conditions: 10 μM HU-MCA-13, read-out: Maximal Response
T1 construct: DiscoverX (SAFETYscan contract panel)

[11] = target: T2, Rho Associated Coiled-Coil Containing Protein Kinase 1 (serine-threonine kinase) (ROCK1) (Homo sapiens, UniProt Q13464); assay: SAFETYscan ROCK1 kinase Binding; conditions: Inhibitor mode, 10 μM HU-MCA-13, read-out: Maximal Response
T2 construct: DiscoverX (KINOMEscan)

[12] = target: T3, Nuclear Hormone Androgen Receptor (AR) (Homo sapiens, UniProt P10275); assay: SAFETYscan AR Nuclear Hormone Receptor Translocation; type: cell-based; conditions: 10 μM HU-MCA-13
T3 construct: DiscoverX (SAFETYscan contract panel)

Cyclooxygenase 1 (COX 1) = target: T4, Cyclooxygenase 1 (COX 1) (Homo sapiens, UniProt P23219); assay: SAFETYscan COX 1 Enzymatic; type: biochemical; conditions: Inhibitor mode; 10 μM HU-MCA-13; read-out: Maximal Response
T4 construct: DiscoverX (SAFETYscan contract panel)

[13] = target: T5, cGMP-inhibited cyclic nucleotide phosphodiesterase 3A (PDE3A) (Homo sapiens, UniProt Q14432); assay: SAFETYscan PDE3A Enzymatic; type: biochemical; conditions: Inhibitor mode; 10 μM HU-MCA-13; read-out: Maximal Response
T5 construct: DiscoverX (SAFETYscan contract panel)

[14] = target: T6, cAMP-specific 3′,5′-cyclic phosphodiesterase 4D2 (PDE4D2) (Homo sapiens, UniProt Q08499); assay: SAFETYscan PDE4D2 Enzymatic; type: biochemical; conditions: Inhibitor mode; 10 μM HU-MCA-13; read-out: Maximal Response
T6 construct: DiscoverX (SAFETYscan contract panel)

[15] = target: T7, Dopamine transporter (DAT) (Homo sapiens, UniProt Q01959); assay: SAFETYscan DAT Transporter; type: cell-based; conditions: Blocker mode; 10 μM HU-MCA-13; read-out: Maximal Response
T7 construct: DiscoverX (SAFETYscan contract panel)

[16] = target: T8, Serotonin transporter (SERT) (Homo sapiens, UniProt P31645); assay: cell-based; conditions: Blocker mode; 10 μM HU-MCA-13; read-out: Maximal Response
T8 construct: DiscoverX (SAFETYscan contract panel)

[17] = target: Voltage-gated L-type calcium channel (CAV1.2) (Homo sapiens, UniProt Q13936); assay: in vitro; design: dose or concentration left out as unconfirmed

Opioid Receptor Kappa 1 (OPRK1), sequence (P41145 whole entry): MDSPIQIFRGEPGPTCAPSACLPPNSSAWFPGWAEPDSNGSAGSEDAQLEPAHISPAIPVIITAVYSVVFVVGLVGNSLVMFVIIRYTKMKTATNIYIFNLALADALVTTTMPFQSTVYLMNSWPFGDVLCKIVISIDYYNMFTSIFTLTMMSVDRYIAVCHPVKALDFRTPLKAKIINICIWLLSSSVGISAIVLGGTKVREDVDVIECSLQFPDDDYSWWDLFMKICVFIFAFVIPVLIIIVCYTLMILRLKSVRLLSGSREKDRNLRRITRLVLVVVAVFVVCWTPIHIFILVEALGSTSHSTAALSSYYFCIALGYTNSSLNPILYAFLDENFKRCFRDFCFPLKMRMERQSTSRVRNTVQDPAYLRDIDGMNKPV
Opioid Receptor Delta 1 (OPRD1), sequence (P41143 whole entry): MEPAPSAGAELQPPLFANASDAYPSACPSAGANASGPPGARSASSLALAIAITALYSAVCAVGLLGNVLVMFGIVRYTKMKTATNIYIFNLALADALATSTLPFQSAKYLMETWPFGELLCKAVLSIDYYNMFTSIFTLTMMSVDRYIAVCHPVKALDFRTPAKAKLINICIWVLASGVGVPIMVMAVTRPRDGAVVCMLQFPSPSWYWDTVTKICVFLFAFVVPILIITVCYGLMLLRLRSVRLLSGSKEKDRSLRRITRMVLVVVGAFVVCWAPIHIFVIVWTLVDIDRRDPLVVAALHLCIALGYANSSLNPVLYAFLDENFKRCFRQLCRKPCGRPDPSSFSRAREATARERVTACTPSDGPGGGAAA
5-Hydroxytryptamine (Serotonin) Receptor 1B (HTR1B), sequence (P28222 whole entry): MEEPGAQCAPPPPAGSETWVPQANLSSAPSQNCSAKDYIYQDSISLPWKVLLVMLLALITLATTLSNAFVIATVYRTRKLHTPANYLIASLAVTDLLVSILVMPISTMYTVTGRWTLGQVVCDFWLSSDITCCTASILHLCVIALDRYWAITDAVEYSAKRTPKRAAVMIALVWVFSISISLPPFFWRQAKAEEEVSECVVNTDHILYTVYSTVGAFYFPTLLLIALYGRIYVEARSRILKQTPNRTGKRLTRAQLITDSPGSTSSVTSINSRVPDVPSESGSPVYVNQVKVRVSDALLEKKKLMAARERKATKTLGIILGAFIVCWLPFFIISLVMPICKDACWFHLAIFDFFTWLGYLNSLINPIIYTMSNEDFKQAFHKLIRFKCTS
5-Hydroxytryptamine (Serotonin) Receptor 2B (HTR2B), sequence (P41595 whole entry): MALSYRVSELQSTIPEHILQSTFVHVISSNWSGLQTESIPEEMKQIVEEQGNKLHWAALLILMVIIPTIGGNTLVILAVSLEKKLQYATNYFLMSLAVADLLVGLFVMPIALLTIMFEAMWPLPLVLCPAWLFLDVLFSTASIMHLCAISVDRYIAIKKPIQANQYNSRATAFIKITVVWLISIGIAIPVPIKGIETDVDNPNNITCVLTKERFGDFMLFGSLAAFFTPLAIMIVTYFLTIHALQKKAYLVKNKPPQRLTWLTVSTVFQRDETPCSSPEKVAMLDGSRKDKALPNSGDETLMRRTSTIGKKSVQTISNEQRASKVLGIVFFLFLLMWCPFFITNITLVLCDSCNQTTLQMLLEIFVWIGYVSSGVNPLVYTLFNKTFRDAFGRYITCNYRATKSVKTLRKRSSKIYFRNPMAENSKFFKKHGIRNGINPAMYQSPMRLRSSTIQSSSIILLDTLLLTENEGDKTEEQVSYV
Arginine Vasopressin Receptor 1A (AVPR1A), sequence (P37288 whole entry): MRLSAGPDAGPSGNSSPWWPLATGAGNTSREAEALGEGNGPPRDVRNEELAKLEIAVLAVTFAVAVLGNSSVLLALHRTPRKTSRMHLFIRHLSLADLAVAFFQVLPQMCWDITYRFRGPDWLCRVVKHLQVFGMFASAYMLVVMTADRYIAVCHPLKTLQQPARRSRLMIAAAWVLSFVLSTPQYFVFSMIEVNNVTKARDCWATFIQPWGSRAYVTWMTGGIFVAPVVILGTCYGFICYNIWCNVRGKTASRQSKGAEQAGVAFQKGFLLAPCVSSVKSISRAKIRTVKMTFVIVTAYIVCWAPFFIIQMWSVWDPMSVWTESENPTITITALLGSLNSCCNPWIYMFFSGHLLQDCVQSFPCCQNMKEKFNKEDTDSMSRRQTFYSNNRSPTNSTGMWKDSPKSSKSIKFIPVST
Opioid Receptor Mu 1 (OPRM1), sequence (P35372 whole entry): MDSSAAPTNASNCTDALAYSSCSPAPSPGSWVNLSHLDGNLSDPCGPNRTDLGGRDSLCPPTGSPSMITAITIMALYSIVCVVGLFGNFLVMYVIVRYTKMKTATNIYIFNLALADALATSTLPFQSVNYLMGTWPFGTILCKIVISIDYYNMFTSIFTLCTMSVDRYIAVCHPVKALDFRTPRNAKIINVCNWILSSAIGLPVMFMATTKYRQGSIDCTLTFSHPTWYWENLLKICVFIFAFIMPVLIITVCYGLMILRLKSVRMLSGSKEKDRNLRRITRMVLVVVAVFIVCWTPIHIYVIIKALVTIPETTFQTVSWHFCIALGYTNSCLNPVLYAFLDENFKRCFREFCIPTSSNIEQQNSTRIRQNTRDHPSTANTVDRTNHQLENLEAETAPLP
T1 sequence (P43681 29-627 limits assumed): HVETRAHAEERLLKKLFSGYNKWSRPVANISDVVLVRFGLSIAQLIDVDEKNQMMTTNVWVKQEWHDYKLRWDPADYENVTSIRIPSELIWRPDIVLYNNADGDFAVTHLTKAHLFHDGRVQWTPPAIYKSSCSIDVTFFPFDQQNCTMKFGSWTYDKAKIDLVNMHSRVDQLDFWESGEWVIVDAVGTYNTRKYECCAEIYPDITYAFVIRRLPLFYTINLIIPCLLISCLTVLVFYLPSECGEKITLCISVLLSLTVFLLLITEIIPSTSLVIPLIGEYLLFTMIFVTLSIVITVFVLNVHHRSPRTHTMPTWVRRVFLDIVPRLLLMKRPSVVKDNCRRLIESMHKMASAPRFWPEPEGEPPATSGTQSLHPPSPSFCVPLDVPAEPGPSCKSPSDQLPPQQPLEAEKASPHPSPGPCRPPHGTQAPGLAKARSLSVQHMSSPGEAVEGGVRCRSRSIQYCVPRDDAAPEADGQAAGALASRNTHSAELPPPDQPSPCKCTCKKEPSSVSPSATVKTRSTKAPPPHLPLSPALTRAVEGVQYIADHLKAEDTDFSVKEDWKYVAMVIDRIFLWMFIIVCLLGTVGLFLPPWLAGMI
T1 sequence (P17787 26-502): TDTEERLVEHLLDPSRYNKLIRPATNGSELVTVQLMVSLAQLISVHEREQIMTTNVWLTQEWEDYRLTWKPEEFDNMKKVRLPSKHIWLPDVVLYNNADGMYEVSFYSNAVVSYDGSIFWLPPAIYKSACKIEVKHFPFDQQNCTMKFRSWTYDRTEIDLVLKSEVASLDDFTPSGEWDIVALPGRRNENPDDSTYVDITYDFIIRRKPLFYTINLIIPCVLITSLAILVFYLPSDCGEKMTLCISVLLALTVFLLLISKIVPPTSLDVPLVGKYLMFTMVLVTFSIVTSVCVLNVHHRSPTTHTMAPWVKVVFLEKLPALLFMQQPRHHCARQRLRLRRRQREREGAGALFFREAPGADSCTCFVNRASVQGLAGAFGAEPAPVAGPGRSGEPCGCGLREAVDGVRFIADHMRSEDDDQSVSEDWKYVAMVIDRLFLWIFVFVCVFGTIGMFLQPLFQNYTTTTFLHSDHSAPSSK
Muscarinic acetylcholine Receptor M1 (CHRM1), sequence (P11229 whole entry): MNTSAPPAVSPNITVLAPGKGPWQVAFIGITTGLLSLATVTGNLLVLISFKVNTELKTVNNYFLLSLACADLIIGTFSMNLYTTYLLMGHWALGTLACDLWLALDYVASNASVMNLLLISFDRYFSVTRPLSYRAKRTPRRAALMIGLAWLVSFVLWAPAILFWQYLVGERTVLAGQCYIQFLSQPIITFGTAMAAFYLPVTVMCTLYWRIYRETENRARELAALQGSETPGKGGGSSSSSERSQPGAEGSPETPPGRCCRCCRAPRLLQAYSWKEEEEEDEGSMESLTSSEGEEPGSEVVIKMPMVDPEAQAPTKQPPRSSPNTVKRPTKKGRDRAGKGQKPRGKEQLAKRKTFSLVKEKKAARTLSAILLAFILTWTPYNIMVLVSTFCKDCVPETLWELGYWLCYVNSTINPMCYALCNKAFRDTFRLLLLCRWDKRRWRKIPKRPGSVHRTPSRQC
T3 sequence (P10275 whole entry): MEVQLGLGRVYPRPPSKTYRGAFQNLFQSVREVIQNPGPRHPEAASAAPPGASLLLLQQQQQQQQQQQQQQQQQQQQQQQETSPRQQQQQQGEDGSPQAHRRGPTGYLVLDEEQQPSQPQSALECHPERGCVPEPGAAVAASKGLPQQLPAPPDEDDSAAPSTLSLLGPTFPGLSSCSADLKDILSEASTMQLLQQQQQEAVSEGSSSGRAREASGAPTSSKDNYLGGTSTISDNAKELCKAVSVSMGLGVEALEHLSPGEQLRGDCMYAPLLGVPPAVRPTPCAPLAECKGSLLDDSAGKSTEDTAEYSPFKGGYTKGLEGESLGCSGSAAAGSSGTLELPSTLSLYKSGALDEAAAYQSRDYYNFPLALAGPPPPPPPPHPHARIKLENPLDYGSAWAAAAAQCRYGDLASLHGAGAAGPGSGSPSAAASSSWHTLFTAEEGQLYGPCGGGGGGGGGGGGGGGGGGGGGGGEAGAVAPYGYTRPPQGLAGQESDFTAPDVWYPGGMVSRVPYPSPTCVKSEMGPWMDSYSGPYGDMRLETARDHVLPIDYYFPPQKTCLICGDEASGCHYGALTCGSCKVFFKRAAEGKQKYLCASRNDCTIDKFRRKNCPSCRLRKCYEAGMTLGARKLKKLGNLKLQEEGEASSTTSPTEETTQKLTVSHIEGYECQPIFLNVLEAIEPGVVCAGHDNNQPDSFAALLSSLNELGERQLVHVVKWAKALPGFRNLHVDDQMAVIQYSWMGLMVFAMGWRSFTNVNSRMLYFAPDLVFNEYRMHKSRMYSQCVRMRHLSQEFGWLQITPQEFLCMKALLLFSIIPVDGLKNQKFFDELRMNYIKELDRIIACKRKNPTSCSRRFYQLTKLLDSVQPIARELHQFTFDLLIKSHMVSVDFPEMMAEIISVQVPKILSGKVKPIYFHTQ

With `C=CCC1CCC[C@@H](CCC(=O)O)C1=C` (stereo partly shown) [Compound 13] the “neurite outgrowth, neurotropic effect (in words)” value ([1]; HU-MCA-13 5 μM, 5 days) was “strong neurite outgrowth, neurotropic effect like NGF”, the “maturity of neurites (cytoskeletal-tubulin protein staining)” value ([1]; HU-MCA-13 compared with NGF-treated ganglia) was “less mature than in NGF-treated ganglia” and the Emax ([2]; Agonist mode) was 0.29%. For the same molecule, the Emax ([2]; Antagonist mode) was 0%, the Emax ([3]; Agonist mode) was 0% and the Emax ([3]; Antagonist mode) was 7.43%. The Emax [4] was 0%, the Emax ([5]; Agonist mode) was 10.5% and the Emax ([5]; Antagonist mode) was 0%. For the same molecule, the Emax ([6]; Agonist mode) was 0%, the Emax ([6]; Antagonist mode) was 0.13% and the Emax ([7]; Agonist mode) was 6.34%. For the same molecule, the Emax ([7]; Antagonist mode) was 0%, the Emax ([8]; Agonist mode) was 7.89% and the Emax ([8]; Antagonist mode) was 0%. For the same molecule, the Emax ([9]; OPRM1, Agonist mode) was 9.31%, the Emax ([9]; OPRM1, Antagonist mode) was 0.38% and the Emax ([10]; Blocker mode) was 5.95%. The Emax ([10]; Opener mode) was 0%, the Emax [11] was 21.6% and the Emax ([12]; Antagonist mode, read-out: Maximal Response) was 5.27%. For the same molecule, the Emax ([12]; read-out: Maximal Response, Agonist mode) was 0%, the Emax (Cyclooxygenase 1 (COX 1)) was 25% and the Emax [13] was 3.21%. It also gave an Emax [14] of 0%, an Emax [15] of 0% and an Emax [16] of 15.4%. For the same molecule, the Emax [17] was 3.82%.
